Results reported in paper PMC9916883, “Betaine- and L-Carnitine-Based Ionic Liquids as Solubilising and Stabilising Agents for the Formulation of Antimicrobial Eye Drops Containing Diacerein” (International Journal of Molecular Sciences, 2023).
Where “and” joins values, the source holds several entries; their conditions need not be identical. Equal values may be shown once. Read-outs that look alike come from different tables or passages of the source.

Tests used:
[1] = Critical aggregation concentration (CAC) by surface tension; format: physicochemical; conditions: in water; for critical aggregation concentration (CAC): via surface tension
Experimental: The CACs of the ILs were determined by measuring the surface tension (Tensiometer du Nouy, Force Tensiometer K6 from KRÜSS (GmbH)) of aqueous solutions with increasing IL concentrations. Milli-Q H2O was used as a reference, with γ equal to 71 ± 1.3 mN/m at 25 ± 2 °C (Dortmund databank reference, 71.5 ± 0.5 mN/m 24 ± 1.4 °C). Surface tension values were plotted vs. logarithms of the ILs’ concentrations, linear fits were applied to the data points, and CAC was determined as the intersection of the two linear fits relative to the initial surface tension depression and the further plateau.

[2] = IL aggregates' size and zeta potential in aqueous solutions (DLS, Zetasizer); format: physicochemical
Experimental: The size distribution and zeta potential values of the ILs’ aggregates in aqueous solutions were evaluated by using a Zetasizer Nano ZS (Malvern) at 25 °C. The samples were prepared by adding an excess of either DIA or Rhe (5 mg/mL) to the aqueous IL solutions, incubating them for 30 min at 25 °C, and finally removing the excess drugs by centrifugation. […] In contrast, for PB solutions, the solutions were prepared in water, and […] of 100 mM pH 7 phosphate buffer was added per 1 mL of aqueous solution, directly in the cuvette, before the dynamic light scattering (DLS) analysis started. The concentrations of the solubilised drug were determined by UV–Vis analysis.

[3] = tested on: type II porcine gastric mucin; experiment: Mucoadhesion by microrheological method; format: physicochemical
Experimental: The measurements were performed using the Zetasizer Nano ZS instrument, as previously reported. The microrheological characterisation of the ILs was performed using type II porcine gastric mucin. Porcine gastric mucin was used because no ocular mucins were available, and as it has already been used for ocular models. Briefly, a 3 mg/mL suspension of type II porcine gastric mucin was prepared in Milli-Q water and filtered through 0.45 µm cellulose acetate filters. Next, 0.27 M and 0.20 M solutions of both ionic liquids in deionised water were prepared (corresponding to concentrations 15% higher and lower than the CAC, respectively). One millilitre of each sample to be tested had the following composition: 5 µL of tracer (latex polystyrene particles, diameter 500 nm, Beckman), 7.38 mg/mL of IL solution, 0.3 mg of mucin, and 8.1 mg/mL of 5% NaCl. As a reference, 1 mL of sample was prepared with the same composition but without the ILs. All measurements were carried out in triplicate.

[4] = tested on: BALB/3T3 clone A31 fibroblast cells; experiment: Cytotoxicity screening (WST-1); format: cell-based, murine; conditions: Mus musculus, 4 h incubation, read-out: IC50 of cell viability
Experimental: BALB/3T3 clone A31 fibroblast cells were grown in Dulbecco’s Modified Eagle Medium (DMEM), supplemented with 2 mM L-glutamine, 1% penicillin/streptomycin, and 10% bovine calf serum. Cells were grown in a CO2 incubator (Heracell 150i series) at 37 °C and 5% CO2, with cells sub-cultured at 80–90% confluency. The cell monolayers were rinsed with PBS and treated with trypsin–EDTA to detach the cells before their resuspension in fresh media. A subconfluent monolayer of BALB/3T3 clone A31 fibroblast cells was trypsinised, centrifuged at 1000 rpm for 5 min, resuspended in growth medium, and counted.
A cytotoxicity screening was carried out for both ILs (range […]), as well as DIA and Rhe (0.5–200 mg/mL). Briefly, BALB/3T3 clone A31 fibroblast cells were seeded in each well of 96-well plates at a seeding density of 6 × 10^3 cells/well for 24 h, until 60–70% confluence was reached. After 24 h, the medium was then removed from each well and replaced with DMEM containing the samples.
After 4 h of incubation, the media were removed, replaced with fresh medium containing 10% WST-1 reagent solution, and maintained for 4 h at 37° C with 5% CO2. Afterwards, formazan dye absorbance was quantified at 450 nm with the reference wavelength at 655 nm by using a multilabel reader (BioTek 800/TS, Thermo Scientific).

[5] = tested on: S. aureus W4; experiment: Killing assay; format: cell-based, Staphylococcus aureus; conditions: 3 h incubation in 5% TSB, ILs 0.27 M; for bactericidal effect: DIA 0.34 M; for CFU after treatment (limit of detection): DIA 0.34 M if loaded
Experimental: (§1) To this end, the bacterial strains were grown in TSB until the exponential phase, and approximately 5 × 10^4 CFU/mL-contained in 10 μL-was added to 5 μL of TSB, 35 μL of water, and 50 μL of one of the following solutions corresponding to the eye drop compositions tested in vivo: Bet6 or Carn6 with 0.27 M or 0.34 M DIA, plain DIA (0.34 M) solution, or plain Bet6/plain Carn6, both at 0.27 M. All solutions were prepared in CB. The samples were incubated at 37 °C with shaking for 3 h. A sample containing 0.6% DMSO (corresponding to the highest concentration of DMSO tested) was used as a control. Following incubation, the samples were diluted 10-fold in LB and plated on tryptone soy agar (TSA, Oxoid) to determine the number of CFU. Bactericidal activity was defined as a reduction of at least 3 Log10 in the number of viable bacteria as compared to the inoculum.

[6] = tested on: P. aeruginosa ATCC 27853; experiment: Killing assay; format: cell-based, Pseudomonas aeruginosa; conditions: 3 h incubation in 5% TSB, ILs 0.27 M; for bactericidal effect: DIA 0.34 M; for CFU after treatment (limit of detection): DIA 0.34 M if loaded
Experimental: as §1

[7] = IL 180 μg/mL, DIA + (saturation), CB pH5
[8] = IL 180 μg/mL, Rhe + (saturation), PB pH7
[9] = IL 200 μg/mL, DIA + (saturation), CB pH5
[10] = IL 200 μg/mL, DIA + (saturation), H2O pH4
[11] = IL 200 μg/mL, Rhe + (saturation), H2O pH4
[12] = mucin with IL at 0.20 M (lower than CAC)
[13] = mucin with IL at 0.27 M (higher than CAC)

CCCCCCOC(=O)C[N+](C)(C)C.[Br-] [Bet6, (2-hexyloxy-2-oxoethyl)-trimethylammonium bromide]
surface tension at the CAC (σ) [1]: 34.2 mN/m
critical aggregation concentration (CAC) [1]: 0.227 M and 0.227 ± 0.016 M
PDI ([2]; IL 90 μg/mL, no drug, H2O pH4): 0.01 ± 0.002
Ø (aggregates size) ([2]; IL 90 μg/mL, no drug, H2O pH4): 0.80 ± 0.03 nm
PDI ([2]; IL 105 μg/mL, no drug, H2O pH4): 0.01 ± 0.005
Ø (aggregates size) ([2]; IL 105 μg/mL, no drug, H2O pH4): 0.96 ±0.07 nm
PDI ([2]; IL 170 μg/mL, no drug, H2O pH4): 0.01 ± 0.005
Ø (aggregates size) ([2]; IL 170 μg/mL, no drug, H2O pH4): 1.96 ± 0.30 nm
PDI [2, 7]: 0.01 ± 0.005
Ø (aggregates size) [2, 7]: 1.73 ± 0.40 nm
ζ (zeta potential) [2, 7]: 2.82 ± 1.17 mV
PDI [2, 8]: 0.03 ± 0.005
Ø (aggregates size) [2, 8]: 1.71 ± 0.49 nm
ζ (zeta potential) [2, 8]: 5.77 ± 0.54 mV
PDI ([2]; IL 180 μg/mL, no drug, CB pH5): 0.01 ± 0.005
Ø (aggregates size) ([2]; IL 180 μg/mL, no drug, CB pH5): 1.76 ± 0.38 nm
ζ (zeta potential) ([2]; IL 180 μg/mL, no drug, CB pH5): 0.65 ± 0.53 mV
PDI ([2]; IL 180 μg/mL, no drug, PB pH7): 0.01 ± 0.005
Ø (aggregates size) ([2]; IL 180 μg/mL, no drug, PB pH7): 1.79 ± 0.41 nm
ζ (zeta potential) ([2]; IL 180 μg/mL, no drug, PB pH7): 8.93 ± 0.94 mV
PDI [2, 9]: 0.02 ± 0.005
Ø (aggregates size) [2, 9]: 2.01 ± 0.60 nm
ζ (zeta potential) [2, 9]: 0.16 ± 1.85 mV
PDI [2, 10]: 0.02 ± 0.005
Ø (aggregates size) [2, 10]: 1.69 ± 0.92 nm
ζ (zeta potential) [2, 10]: 9.53 ± 1.68 mV
PDI [2, 11]: 0.01 ±0.005
Ø (aggregates size) [2, 11]: 1.63 ± 0.21 nm
ζ (zeta potential) [2, 11]: 8.17 ± 0.94 mV
PDI ([2]; IL 200 μg/mL, no drug, CB pH5): 0.03 ± 0.005
Ø (aggregates size) ([2]; IL 200 μg/mL, no drug, CB pH5): 1.97 ± 0.44 nm
ζ (zeta potential) ([2]; IL 200 μg/mL, no drug, CB pH5): 2.62 ± 0.96 mV
PDI ([2]; IL 200 μg/mL, no drug, H2O pH4): 0.01 ± 0.005
Ø (aggregates size) ([2]; IL 200 μg/mL, no drug, H2O pH4): 1.81 ± 0.41 nm
ζ (zeta potential) ([2]; IL 200 μg/mL, no drug, H2O pH4): 13.70 ± 1.60 mV
Relative Viscosity [3, 12]: 0.79 ± 0.01 cP
Relative Viscosity [3, 13]: 1.32 ± 0.13 cP
IC50 [4]: 7500 µg/mL
IC50 ([4]; murine fibroblasts): 26.8 mM
bactericidal effect [5]: strong bactericidal effect
CFU after treatment (limit of detection) [5]: < 100 CFU/mL
bactericidal effect [6]: strong bactericidal effect
CFU after treatment (limit of detection) [6]: < 100 CFU/mL

CCCCCCOC(=O)C[C@@H](O)C[N+](C)(C)C [Carn6, (R)-(4-hexyloxy-2-hydroxy-4-oxobutyl)-trimethylammonium bromide]
surface tension at the CAC (σ) [1]: 36.1 mN/m
critical aggregation concentration (CAC) [1]: 0.226 M and 0.226 ± 0.020 M
PDI ([2]; IL 90 μg/mL, no drug, H2O pH4): 0.01 ± 0.002
Ø (aggregates size) ([2]; IL 90 μg/mL, no drug, H2O pH4): 1.17 ± 0.03 nm
PDI ([2]; IL 105 μg/mL, no drug, H2O pH4): 0.01 ± 0.002
Ø (aggregates size) ([2]; IL 105 μg/mL, no drug, H2O pH4): 1.53 ± 0.07 nm
PDI ([2]; IL 170 μg/mL, no drug, H2O pH4): 0.03 ± 0.016
Ø (aggregates size) ([2]; IL 170 μg/mL, no drug, H2O pH4): 2.12 ± 0.14 nm
PDI [2, 7]: 0.01 ± 0.005
Ø (aggregates size) [2, 7]: 2.24 ± 0.47 nm
ζ (zeta potential) [2, 7]: 1.85 ± 0.47 mV
PDI [2, 8]: 0.02 ± 0.005
Ø (aggregates size) [2, 8]: 2.03 ± 0.46 nm
ζ (zeta potential) [2, 8]: 9.38 ± 1.22 mV
PDI ([2]; IL 180 μg/mL, no drug, CB pH5): 0.01 ± 0.005
Ø (aggregates size) ([2]; IL 180 μg/mL, no drug, CB pH5): 2.04 ± 0.43 nm
ζ (zeta potential) ([2]; IL 180 μg/mL, no drug, CB pH5): 2.56 ± 0.34 mV
PDI ([2]; IL 180 μg/mL, no drug, PB pH7): 0.004± 0.005
Ø (aggregates size) ([2]; IL 180 μg/mL, no drug, PB pH7): 1.91 ± 0.27 nm
ζ (zeta potential) ([2]; IL 180 μg/mL, no drug, PB pH7): 10.70 ± 1.16 mV
PDI [2, 9]: 0.01 ± 0.005
Ø (aggregates size) [2, 9]: 2.40 ± 0.56 nm
ζ (zeta potential) [2, 9]: 4.17 ± 0.20 mV
PDI [2, 10]: 0.02 ± 0.005
Ø (aggregates size) [2, 10]: 2.14 ± 0.55 nm
ζ (zeta potential) [2, 10]: 12.20 ± 1.96 mV
PDI [2, 11]: 0.02 ± 0.005
Ø (aggregates size) [2, 11]: 2.11 ± 0.50 nm
ζ (zeta potential) [2, 11]: 12.80 ± 1.27 mV
PDI ([2]; IL 200 μg/mL, no drug, CB pH5): 0.07 ± 0.005
Ø (aggregates size) ([2]; IL 200 μg/mL, no drug, CB pH5): 2.34 ± 0.66 nm
ζ (zeta potential) ([2]; IL 200 μg/mL, no drug, CB pH5): 2.08 ± 0.13 mV
PDI ([2]; IL 200 μg/mL, no drug, H2O pH4): 0.01 ± 0.005
Ø (aggregates size) ([2]; IL 200 μg/mL, no drug, H2O pH4): 1.87 ± 0.42 nm
ζ (zeta potential) ([2]; IL 200 μg/mL, no drug, H2O pH4): 14.30 ± 2.33 mV
Relative Viscosity [3, 12]: 0.75 ± 0.01 cP
Relative Viscosity [3, 13]: 1.31 ± 0.26 cP
IC50 [4]: 9000 µg/mL
IC50 ([4]; murine fibroblasts): 27.8 mM
bactericidal effect [5]: strong bactericidal effect
CFU after treatment (limit of detection) [5]: < 100 CFU/mL
bactericidal effect [6]: strong bactericidal effect
CFU after treatment (limit of detection) [6]: < 100 CFU/mL
